Source: US10160986B2, “Chemoenzymatic synthesis of heparin and heparan sulfate analogs” (The Regents of the University of California, priority 2011, dated 2018)
Where two headings read alike, the source gives them in different places.

Assays:
NahK_ATCC15697 = NahK_ATCC15697 (Bifidobacterium longum, UniProt B7GN78); assay: Substrate specificity CE assay, NahK_ATCC15697; assay type: biochemical, Bifidobacterium infantis
Method: (§1) Substrates specificity assays. GlcNAc, GalNAc, and their derivatives (1 mM) were used as substrates in the presence of ATP (1 mM) and MgCl2 (5 mM) in a Tris-HCl buffer (pH 8.0, 200 mM) to analyze the substrate specificity of NahKs. Two concentrations (0.75 μM or 15 μM) of each NahK were used and the reactions were allowed to proceed for 10 min (for 0.75 μM NahK) or 30 min (for 15 μM NahK) at 37° C. […] All other conditions were the same as for GlcNAc, GalNAc, and their derivatives.
(§2) Capillary electrophoresis (CE) assays. Based on the detection of ADP and ATP in the reaction mixture by a UV detector, a capillary electrophoresis-based method was developed to directly measure the formation of ADP and N-acetylhexosamine-1-phosphate from ATP and N-acetylhexosamine for characterizing the activities of NahKs.

NahK_ATCC55813 = NahK_ATCC55813 (Bifidobacterium longum subsp. longum, UniProt E8MF12, D7V/R348H); assay type: biochemical; parameters: made in house; host or cells: E. coli BL21(DE3)
Method: as §1, §2

NahK = assay: Kinase reaction monitored by CE (ATP to ADP), NahK; assay type: biochemical, Bifidobacterium infantis; conditions: monosaccharide 15 mM, ATP 18 mM, 37° C.
Method: Capillary electrophoresis (CE) and thin-layer chromatograph (TLC) assays for kinase reactions. Kinase reactions were carried out at 37° C. in a total volume of 30 μL in Tris-HCl buffer (100 mM, pH 8.0) containing monosaccharide (15 mM), ATP (18 mM, 1.2 eq.), MgCl2 (10 mM), and a kinase (6 μg). These conditions were similar to those used for preparative-scale synthesis. After 1 hr, 4 hr, and 24 hr, an aliquot of 8 μL was withdrawn from each reaction mixture, boiled in a water bath for 5 min and stored at −20° C. until being analyzed by capillary electrophoresis (CE) and TLC. For TLC analysis, 0.5 μL of each sample was directly spotted on TLC plates, developed using suitable developing solvents, and stained with anisaldehyde sugar stain. For CE analysis, 1.5 μL of each sample was diluted into 30 μL and subjected to CE analysis as described above for pH profile studies.
General methods for compound purification and characterization. Chemicals were purchased and used without further purification. ^1H NMR and ^13C NMR spectra were recorded on a Varian Mercury 600 NMR spectrometer. High resolution electrospray ionization (ESI) mass spectra were obtained in negative mode using Thermo Electron LTQ-Orbitrap mass spectrometer. Silica gel 60 Å (Sorbent Technologies) was used for flash column chromatography. Thin-layer chromatography (TLC) was performed on silica gel plates 60 GF254 (Sorbent Technologies) using anisaldehyde sugar stain for detection. Gel filtration chromatography was performed with a column (100 cm×2.5 cm) packed with BioGel P-2 Fine resins (Bio-Rad). GlcN3 (T6-9) (Lau K, Thon, V, Yu H, Ding L, Chen Y, Muthana M M, Wong D, Huang R, and Chen X. Chem. Commun. 2010, 46, 6066-6068), ManF (T6-11) (Burkart M D, Zhang Z, Hung S-C, and Wong C-H. J. Am. Chem. Soc. 1997, 119, 11743-11746; Cao H, Li Y, Lau K, Muthana S, Yu H, Cheng J, Chokhawala H A, Sugiarto G, Zhang L, and Chen X. Org. Biomol. Chem. 2009, 7, 5137-5145), GalN3 (T6-4) and ManN3 (T6-14) (Yu H, Yu H, Karpel R, cand Chen X. Bioorg. Med. Chem. 2004, 12, 6427-6435) were previously synthesized using reported methods. NahK_ATCC15697, EcGalK, SpGalK, and PmPpA were overexpressed as described previously.

[1] = Glc, Gal, Man, ManNAc and derivatives, enzyme 15, 37° C. for 30 min (Table 3)
[2] = 0.75 μM enzyme, 10 min at 37° C., substrate 1 mM, ATP 1 mM
[3] = 15 μM enzyme, 30 min at 37° C., substrate 1 mM, ATP 1 mM (Table 2)
[4] = Glc, Gal, Man, ManNAc and derivatives, enzyme 15, 37° C. for 30 min (Table 3), listed as drawing 49

| SMILES | Percentage Conversion (NahK_ATCC15697; [1]) [%] | Percentage Conversion (NahK_ATCC55813; [1]) [%] | Percentage Conversion (NahK_ATCC15697; [2]) [%] | Percentage Conversion (NahK_ATCC15697; [3]) [%] | Percentage Conversion (NahK_ATCC55813; [2]) [%] | Percentage Conversion (NahK_ATCC55813; [3]) [%] | further results |
| --- | --- | --- | --- | --- | --- | --- | --- |
| O=C(CO)NC1C(O)OC(CO)[C@@H](O)C1O (some centres unmarked) | 7.6 ± 0.1 | 5.4 ± 0.2 | – | – | – | – | – |
| O=C(CF)NC1C(O)OC(CO)[C@@H](O)C1O (some centres unmarked) | 12.0 ± 0.1 | 9.1 ± 0.2 | – | – | – | – | – |
| COCC(=O)NC1C(O)OC(CO)[C@@H](O)C1O (some centres unmarked) | 12.0 ± 0.4 | 7.4 ± 0.3 | – | – | – | – | – |
| O=S(=O)(O)NC1C(O)OC(CO)[C@@H](O)C1O (some centres unmarked) [2-N-sulfo-glucose] | – | – | 0 | 6.4 ± 0.2 | 0 | 4.0 ± 0.1 | – |
| NC1C(O)OC(CO)[C@@H](O)[C@@H]1O (some centres unmarked) [2-amino-2-deoxy-glucose] | – | – | 0 | 15.0 ± 0.1 | 0 | 8.4 ± 0.1 | ATP Conversion (NahK; 1 hr): 11.9%; ATP Conversion (NahK; 4 hr): 28.0%; ATP Conversion (NahK; 24 hr): 67.1% |
| OCC1OC(O)C[C@@H](O)[C@@H]1O (some centres unmarked) [2-deoxy glucose] | 44.8 ± 0.2 | 28.4 ± 0.1 | – | – | – | – | ATP Conversion (NahK; 1 hr): 36.8%; ATP Conversion (NahK; 4 hr): 69.6%; ATP Conversion (NahK; 24 hr): 79.4% |
| COC1C(O)OC(CO)[C@@H](O)C1O (some centres unmarked) [2Me-Man] | 9.4 ± 0.5 | 0 | – | – | – | – | – |
| [N-]=[N+]=NC1C(O)OC(CO)[C@@H](O)C1O (some centres unmarked) [2N3-Man] | 53.3 ± 0.1 | 40.2 ± 0.2 | – | – | – | – | ATP Conversion (NahK; 1 hr): 34.9%; ATP Conversion (NahK; 4 hr): 65.9%; ATP Conversion (NahK; 24 hr): 76.4% |
| [N-]=[N+]=N[C@@H](C=O)[C@@H](OS(=O)(=O)O)[C@H](O)[C@H](O)CO [3-O-sulfo-2-azido-2-deoxy glucose] | – | – | 0 | 4.9 ± 0.1 | 0 | 3.9 ± 0.1 | – |
| OCC1CC(O)C(O)C(O)O1 (centres unmarked) [4-deoxyMan] | 37.1 ± 0.2 | 23.9 ± 0.1 | – | – | – | – | – |
| [N-]=[N+]=NC1C(O)OC(COS(=O)(=O)O)[C@@H](O)[C@@H]1O (some centres unmarked) [6-O-sulfo-2-azido-2-deoxy glucose] | – | – | 0 | 6.9 ± 0.1 | 0 | 4.4 ± 0.1 | – |
| CC(=O)NC1C(O)OC(COS(=O)(=O)O)[C@@H](O)C1O (some centres unmarked) [6-O-sulfo-GlcNAc] | – | – | 0 | 11.7 ± 0.2 | 0 | 6.6 ± 0.1 | – |
| O=C(NC1C(O)OC(COS(=O)(=O)O)[C@@H](O)C1O)C(F)(F)F (some centres unmarked) [6-O-sulfo-N-trifluoroacetyl glucosamine] | – | – | 0 | 7.2 ± 0.1 | 0 | 3.3 ± 0.2 | – |
| CC(=O)NC1C(O)OC(CN=[N+]=[N-])[C@@H](O)C1O (some centres unmarked) [6-azido-6-deoxy-GlcNAc] | – | – | 0 | 37.2 ± 0.5 | 0 | 23.4 ± 0.1 | – |
| CC(=O)NC1C(O)OC(C)[C@@H](O)C1O (some centres unmarked) [6-deoxy-GlcNAc] | – | – | 4.4 ± 1.2 | 41.8 ± 0.3 | 2.1 ± 0.2 | 36.3 ± 0.3 | – |
| [N-]=[N+]=NCC(=O)NC1C(O)OC(CO)[C@H](O)C1O (some centres unmarked) [GalNAcN3] | – | – | 9.9 ± 0.6 | – | 21.0 ± 1.2 | – | – |
| CCCC(=O)NC1C(O)OC(CO)[C@H](O)C1O (some centres unmarked) [GalNBu] | – | – | 12.1 ± 0.3 | – | 24.0 ± 0.1 | – | – |
| O=C(NC1C(O)OC(CO)[C@H](O)C1O)c1ccccc1 (some centres unmarked) [GalNBz] | – | – | 0 | 62.2 ± 1.0 | 0 | 51.9 ± 0.5 | – |
| O=C(NC1C(O)OC(CO)[C@H](O)C1O)C(F)(F)F (some centres unmarked) [GalNTFA] | – | – | 11.2 ± 1.6 | – | 21.8 ± 0.2 | – | – |
| CC(=O)NC1C(O)OC(CO)[C@@H](O)[C@@H]1O (some centres unmarked) [GlcNAc, N-acetylglucosamine] | – | – | 35.4 ± 0.1 | – | 42.3 ± 0.2 | – | ATP Conversion (NahK; 1 hr): 72.6%; ATP Conversion (NahK; 4 hr): 84.6%; ATP Conversion (NahK; 24 hr): 85.5% |
| [N-]=[N+]=NCC(=O)NC1C(O)OC(CO)[C@@H](O)C1O (some centres unmarked) [GlcNAcN3] | – | – | 11.5 ± 1.0 | – | 22.8 ± 0.4 | – | – |
| CCCC(=O)NC1C(O)OC(CO)[C@@H](O)C1O (some centres unmarked) [GlcNBu] | – | – | 20.9 ± 0.6 | – | 35.0 ± 2.0 | – | – |
| O=C(NC1C(O)OC(CO)[C@@H](O)C1O)c1ccccc1 (some centres unmarked) [GlcNBz] | – | – | 10.3 ± 0.4 | – | 5.2 ± 0.2 | – | – |
| O=C(NC1C(O)OC(CO)[C@@H](O)C1O)C(F)(F)F (some centres unmarked) [GlcNTFA] | – | – | 10.7 ± 0.9 | – | 16.2 ± 0.9 | – | – |
| OCC1OC(O)C(O)[C@@H](O)[C@@H]1O (some centres unmarked) [Man, mannose] | – | – | – | – | – | – | Percentage Conversion (NahK_ATCC15697; [4]): 68.0 ± 1.7%; Percentage Conversion (NahK_ATCC55813; [4]): 37.1 ± 0.4%; ATP Conversion (NahK; 1 hr, listed as T6-11 Man): 29.6%; ATP Conversion (NahK; 4 hr, listed as T6-11 Man): 69.3%; ATP Conversion (NahK; 24 hr, listed as T6-11 Man): 75.1% |
| COCC1OC(O)C(NC(C)=O)[C@@H](O)[C@@H]1O (some centres unmarked) [N-acetyl-6-O-methylmannosamine] | 32.6 ± 0.1 | 28.9 ± 0.1 | – | – | – | – | – |
| CC(=O)N[C@@H]1C(O)O[C@H](CO)[C@@H](O)[C@@H]1O (some centres unmarked) [N-acetylmannosamine] | 8.9 ± 0.1 | 5.5 ± 0.1 | – | – | – | – | ATP Conversion (NahK; 1 hr): 11.4%; ATP Conversion (NahK; 4 hr): 26.1%; ATP Conversion (NahK; 24 hr): 73.8% |
| [N-]=[N+]=NCC(=O)N[C@@H]1C(O)O[C@H](CO)[C@@H](O)[C@@H]1O (some centres unmarked) [N-azidoacetylmannosamine] | 20.3 ± 0.3 | 18.6 ± 0.4 | – | – | – | – | – |
| N[C@@H]1C(O)O[C@H](CO)[C@@H](O)[C@@H]1O (some centres unmarked) [T6-13 ManNH2, mannosamine] | – | – | – | – | – | – | ATP Conversion (NahK; 1 hr): 10.3%; ATP Conversion (NahK; 4 hr): 22.8%; ATP Conversion (NahK; 24 hr): 58.0% |
